test system: ornithine decarboxylase (ODC); experiment: ODC assay: inhibition of TPA induction of ornithine decarboxylase (retinoid-like activity); format: biochemical; conditions: concentration of the test compound which causes 80% inhibition in the ODC assay (TPA-induced ODC)
Text: The retinoic acid-like activity of these compounds is confirmed through the classic measure of retinoic acid activity involving the effects of retinoic acid on ornithine decarboxylase. The original work on the correlation between retinoic acid and decrease in cell proliferation was done by Verma & Boutwell, Cancer Research, 1977, 37,2196-2201. That reference discloses that ornithine decarboxylase (ODC) activity increased precedent to polyamine biosynthesis. It has been established elsewhere that increases in polyamine synthesis can be correlated or associated with cellular proliferation. Thus, if ODC activity could be inhibited, cell hyperproliferation could be modulated. Although all cases for ODC activity increases are unknown, it is known that 12-0-tetradecanoylphorbol-13-acetate (TPA) induces ODC activity. Retinoic acid inhibits this induction of ODC activity by TPA. […] Activity of exemplary compounds of the present invention in the above-described ODC assay is disclosed in Table 2 which provides the IC80 concentration for the respective exemplary compound. ("IC80 " is that concentration of the test compound which causes 80% inhibition in the ODC assay. By analogy, "IC60, for example, is that concentration of the test compound which causes 60% inhibition in the ODC assay.)

Structure (SMILES)	IC80 conc [nmols]
CCOC(=O)c1ccc(C#Cc2ccc3c(c2)C(C)(C)CC[C@@H]3O[C@@H]2CCCCO2)cc1 (relative stereo) [Compound 13, Ethyl 4-[[5,6,7,8-tetrahydro-5(SR)-(2'(RS)-tetrahydropyranyloxy)-8,8-dimethylnaphth-2-yl]ethynyl]benzoate]	7.29
CCOC(=O)c1ccc(C#Cc2ccc3c(c2)C(C)(C)CC[C@@H]3O[C@H]2CCCCO2)cc1 (relative stereo) [Compound 14]	2.80
CCOC(=O)c1ccc(C#Cc2ccc3c(c2)[C@H](O[C@@H]2CCCCO2)CCC3(C)C)cc1 (relative stereo) [Compound 15, Ethyl 4-[[5,6,7,8-tetrahydro-5 (RS)-(2'(RS)-tetrahydropyranyloxy)-8,8-dimethylnaphth-3-yl]ethynyl]benzoate]	0.09
CCOC(=O)c1ccc(C#Cc2ccc3c(c2)[C@H](O[C@H]2CCCCO2)CCC3(C)C)cc1 (relative stereo) [Compound 16, Ethyl 4-[[5,6,7,8-tetrahydro-5(RS)-(2'(SR)-tetrahydropyranyloxy)-8,8-dimethylnaphth-3-yl]ethynyl]benzoate]	0.60
CCOC(=O)c1ccc(C#Cc2ccc3c(c2)[C@H](O[C@@H]2CCCCO2)CCC3(C)C)nc1 (relative stereo) [Compound 17, Ethyl 6-[[5,6,7,8-tetrahydro-5(RS)-(2'(RS)-tetrahydropyranyloxy)-8,8-dimethylnaphth-3-yl]ethynyl]nicotinate]	0.35
CCOC(=O)c1ccc(C#Cc2ccc3c(c2)[C@H](O[C@H]2CCCCO2)CCC3(C)C)nc1 (relative stereo) [Compound 18]	2.20
CC1(C)CC[C@H](O[C@@H]2CCCCO2)c2ccc(C#Cc3ccc(C(=O)O)cc3)cc21 (relative stereo) [Compound 32, 4-[[5,6,7,8-tetrahydro-5(SR)-(2'(RS)-tetrahydropyranyloxy)-8,8-dimethylnaphth-2-yl]ethynyl]benzoic acid]	4.20
CC1(C)CC[C@@H](O[C@@H]2CCCCO2)c2cc(C#Cc3ccc(C(=O)O)cc3)ccc21 (relative stereo) [Compound 33]	0.08
CC1(C)CC[C@@H](O[C@H]2CCCCO2)c2cc(C#Cc3ccc(C(=O)O)cc3)ccc21 (relative stereo) [Compound 34, 4-[[5,6,7,8-tetrahydro-5(RS)-(2'(SR)-tetrahydropyranyloxy)-8,8-dimethylnaphth-3-yl]ethynyl]benzoic acid]	2.30
CC1(C)CC[C@H](O[C@H]2CCCCO2)c2ccc(C#Cc3ccc(C(=O)O)cc3)cc21 (relative stereo) [Compound 35]	< 3
CC1(C)CC[C@@H](O[C@@H]2CCCCO2)c2cc(C#Cc3ccc(C(=O)O)cn3)ccc21 (relative stereo) [Compound 36]	18.70
CCOC(=O)c1ccc(C#Cc2ccc3c(c2)C(OC2CCCCC2)CCC3(C)C)cc1 (stereo not drawn) [Compound 6, Ethyl 4-[(5-cyclohexyloxy-5,6,7,8-tetrahydro-8,8-di-methyl-naphth-3-yl)ethynyl]benzoate]	3.83
CCOC(=O)c1ccc(C#Cc2ccc3c(c2)C(C)(C)CCC3O)cc1 (stereo not drawn) [Compound 9, Ethyl 4-[(5,6,7,8-tetrahydro-5-hydroxy-8,8-dimethyl-naphth-2-yl)ethynyl]benzoate]	0.91
CCOC(=O)c1ccc(C#Cc2ccc3c(c2)C(O)CCC3(C)C)cc1 (stereo not drawn) [Compound 10, Ethyl 4-[(5,6,7,8-tetrahydro-5-hydroxy-8,8-dimethylnaphth-3-yl)ethynyl]benzoate]	3.18
CCOC(=O)c1ccc(C#Cc2ccc3c(c2)C(OCOC)CCC3(C)C)cc1 (stereo not drawn) [Compound 12]	0.40
CC1(C)CCC(O)c2cc(C#Cc3ccc(C(=O)O)cc3)ccc21 (stereo not drawn) [Compound 41, 4-[(5,6,7,8-tetrahydro-5-hydroxy-8,8-dimethylnaphth-3-yl)ethynyl]benzoic acid]	9.30
CC1(C)CCC(O)c2ccc(C#Cc3ccc(C(=O)O)cc3)cc21 (stereo not drawn) [Compound 42, 4-[(5,6,7,8-tetrahydro-5-hydroxy-8,8-dimethylnaphth-2-yl)ethynyl]benzoic acid]	0.66
COCOC1CCC(C)(C)c2ccc(C#Cc3ccc(C(=O)O)cc3)cc21 (stereo not drawn) [Compound 43]	0.81
CCOC(=O)c1ccc(C#Cc2ccc3c(c2)C(C)(C)CCC3(C#N)O[Si](C)(C)C)cc1 (stereo not drawn) [Compound 107, Ethyl 4-[(5-cyano-5,6,7,8-tetrahydro-8,8-dimethyl-5-trimethylsiloxynaphth-2-yl)ethynyl]benzoate]	1.43
CCOC(=O)c1ccc(C#Cc2ccc3c(c2)C(C)(C)CCC3O[Si](C)(C)C)cc1 (stereo not drawn) [Compound 111, Ethyl 4-[(5,6,7,8-tetrahydro-8,8-dimethyl-5-trimethylsiloxynaphth-2-yl)ethynyl]benzoate]	3.40
CCOC(=O)CC1(O)CCC(C)(C)c2cc(C#Cc3ccc(C(=O)OCC)cc3)ccc21 (stereo not drawn) [Compound 113, Ethyl 4-[(5,6,7,8-tetrahydro-5-hydroxy-8,8-dimethyl-5-carboethoxymethylnaphth-2-yl)ethynyl]benzoate]	1.33
CCOC(=O)CC1(O)CCC(C)(C)c2cc(C#Cc3ccc(C(=O)OCC[Si](C)(C)C)cc3)ccc21 (stereo not drawn) [Compound 117, Trimethylsilylethyl 4-[(5,6,7,8-tetrahydro-5-hydroxy-8,8-dimethyl-5-carboethoxymethylnaphth-2-yl)ethynyl]benzoate]	8.60
CCOC(=O)CC1(O)CCC(C)(C)c2ccc(C#Cc3ccc(C(=O)OCC)cc3)cc21 (stereo not drawn) [Compound 119, Ethyl 4-[(5-hydroxy-8,8-dimethyl-5-carhoethoxymethyl-5,6,7,8-tetrahydronapth-3-yl)ethynyl]benzoate]	1.0
CCOC(=O)c1ccc(C#Cc2ccc3c(c2)C(C)(C)CCC3SC(C)=O)cc1 (stereo not drawn) [Compound 143, Ethyl 4-[(5,6,7,8-tetrahydro-8,8-dimethyl-5-thioacetylnaphth-2-yl)ethynyl]benzoate]	0.15
